In patent US20250161238A1, “NMDAR Antagonists Prevent Ageing and Aging-Associated Conditions and Diseases Through Increasing 20S Proteasome Activity” (priority 2022, published 2025):
Entries after “also recorded” stand apart in the source; their conditions may differ.

Legend:
Ub-YFP = Ub-YFP degredation in Hep3B cells; format: cell-based, human
Experimental: This finding was supported by the following experiments; First, a model was developed to find inhibitor or inhibitors for the ubiquitin dependent degredation in the Hep3B cell line. For this purpose Hep3B cell expressing Ub-YFP genome were prepared. Ub-YFP is a system which was used to detect the ubiquitin dependent proteasome activity (26S). It is also known that Ub-YFP is not affected by the ubiquitin-independent protesome system. In further experiments, we tested molecules which are involved in different parts of the ubiquitination processes including PYR41 (Ubiquitin-activating enzyme (E1) inhibitor), NCC697923 (UBE2N E2 ubiquitin-conjugating enzyme inhibitor), SMER3 (ubiquitin ligase E3 inhibitor), SZL-P1-411 (Skp2 E3 ligase inhibitor), SKPIN C1 (Skp2 E3 ligase inhibitor), P005091 (USP7 inhibitor), Vialin A (USP4 and USP5 inhibitor), Spautin A (USP10 and USP13 inhibitor), ML 323 (USP1-UAF1 inhibitor), IU1 (USP14 inhibitor), and Mg132 (protesome inhibitor) for the inhibition of Ub-YFP degredation. […] MG132 was used as the inhibitor of the protesome activity (FIG. 12A). In the next experiment YFP protein amount was investigated in the presence of ketamin, Pyr41, and ketamin and Pyr41 together by western blot in Hep3B cell.
The Ub-R-YFP open-reading frame was obtained from Ub-R-YFP was a gift from Nico Dantuma (Addgene plasmid #11948). Ub-R-YFP sequence was obtained from the original vector by cutting the plasmid with NheI and NotI enzymes (Thermo Scientific), blunt ended and was cloned into pBSK-clo2D which is cut by EcoRV restriction enzyme (SibEnzyme, E059). Ub-R-YFP was obtained from the pBSK-clo2D vector by cutting with BamHI. pLV-EF1a-IRES-Puro (85132-Addgene) vector was cut by BamHI restriction enzyme and dephospharylated and ligated with Ub-R-YFP. After the orientation construct was determined, pLV-EF1a-IRES-Puro-Ub-R-YFP was reproduced in large volumes using DH5a E. Coli.
Hek293T cells were transfected with the pLV-EF1a-IRES-Puro-Ub-R-YFP and helper vectors psPAX2 and pMD2.G using Calcium Phosphate Mammalian Transfection Kit (631312-Takara bio). After 48 h supernatants containing Ub-R-YFP lentivirus were collected and target cells were infected under the presence of […] polybrene. After 24 hours, the media of the cells were replaced with media containing […] puromycin for 6 days. Then living cells were combined in a pool. Infected clones were maintained in the presence of 250 ng/ml puromycin.

[1] = cited from earlier work
mice with GD symptoms = settings: inverted screen / hanging wire test; cited from earlier work
[2] = human subjects; cited from earlier work
lipid accumulation = experiment: Nile red staining of lipid in mouse tissues; format: in vivo; settings: mice at 22 months
Description: In the next study, the effects of NMDAR blocker on lipid accumulation in liver, brain, muscle, lung, skin, pancreas, and kidney of mice with the presence of Memantine and control mice groups at 22 months were stained with Nile red and investigated.
Whole frozen tissues were sectioned with a microtome and fixed in 4% paraformaldehyde, Tissues were washed in PBS and the individual staining methods used in accordance with the manufacturer's recommendations. Total pixels from fluorescence in the images were quantified using Adobe Photoshop software CS2 (Adobe Systems), and normalized to a nuclear stain.

[3] = mice, 30 mg/kg dose; cited from earlier work
C. elegans = C. elegans movements (non-moving, swimming); format: in vivo; settings: 18th day
Experimental: Therefore, the movements of the C. elegans grown at 20° C. on standard nematode growth medium(NGM) plates shaked at constant speed at 200 rpm were recorded for 5 minutes on the 18th day. All C. elegans in plate well were individually followed and counted by three different eyes for 5 minutes. […] One of the basic movement of C. elegans in liquid is crawling while the other is swimming. Previously described that swimming is more energetically demanding for C. elegans than the crawling motion. In addition it was stated that having the ability to swim is related to locomotory fatigue, muscle mitochondrial oxidation, a transcriptional oxidative stress response, and changes in carbohydrate and fat metabolism. It was also known that the swimming ability of C. elegans is also related to pharyngeal, intestinal, neuronal functions and strong muscle into old age.
To sterilize the animals 300 μL of a 6 mM Fluorodeoxyuridine (FUDR) stock solution was added to 10 ml medium. During the monitoring of their life span, the worms were kept by shaking at a constant speed of 200 rpm. Locomotor activities of the worms were recorded and available.

mice = experiment: Color change and condition of fur of aged mice; format: in vivo; settings: 22 months of age; 3 mg/Kg/per day with drinking water
Description: Ten mice, one year old, were supplied for the study. The mice were divided into two groups and one added memenatine to their drinking water, while the other group was designated as the control group. Mice were followed until they were 2 years old. Clinical frailty tests were investigated and compared in the two groups of mice at 22 months. The simplest and most easly determined findings of clinical signs of deterioration in aging mice are the evaluation of changes in mouse skin.
The experimental protocols were approved by the Ethics Committee of Ankara University, Faculty of Medicine, Medical Sciences Experimental Research and Application Center (Date: Dec. 11, 2019 and Decision number: 2019-22-189). Adult (12-mounts-old) C57BL/6 mice (5 for each group) were used. The mice were housed at the Experimental Animal Research Laboratory of Ankara University Faculty of Medicine. Food and water were given without restriction. The ambient temperature was kept at 21±2° C., and locomotor activity tests were performed at this temperature. The animals were housed in a room with a 12-hour light/dark cycle. The procedures in the study were performed in accordance with the Ankara University Animal Care Committee according to international guidelines. […] Tests related to locomotor activities of the mice were recorded and available.

[4] = tested on: human mesenchymal stem cells; experiment: Differentiation markers of mesenchymal stem cells (western blot); format: cell-based; settings: day 14
Description: We investigated the differentiation of stem cells in the presence of memantine after cell passages using the simple differentiation method using the DMEM/F12, 10% FBS without coculture of mouse fibroblast (Yoo et all. 2020).
Cell were harvested at day 14 for western blot and the protein expression amounts of the differentiation markers cd44, cd73, and cd90 were investigated. […] Another indicator of the stem cell differentiation is the determination of the amounts of lipid droplet in the cell. Fourteen-day cell passage is caused to increase lipid in the cell. It was observed that memantine treatment has prevented the amount of lipid droplet (FIG. 36D).

SMILES	Ub-YFP degredation (Ub-YFP; Hep3B expressing Ub-YFP)	YFP protein amount (Ub-YFP; Hep3B, western blot)	free rat brain concentrations, lower in plasma [1]	muscle strength / motor coordination of GD mice (mice with GD symptoms)	CSF concentrations, lower [2]	amount of lipid in liver, brain, muscle, lung, and skin (lipid accumulation)	amount of lipid in pancreas and kidney (lipid accumulation)	tolerability [3]	number of C. elegans that can swim compared to without treatment (C. elegans)	color change and condition of mouse fur (mice)	increase in cd44 protein expression [4]	increase in cd73 protein expression [4]	increase in cd90 protein expression [4]
CNC1(c2ccccc2Cl)CCCCC1=O (stereo not shown) [ketamin, 2-(2-chlorophenyl)-2-(methylamino)-cyclohexanone]	no effect	did not decrease											
CC12CC3CC(C)(C1)CC(N)(C3)C2 [memantine, 3,5-dimethyladamantan-1-amine]			20-30%	much better; also recorded: improved significantly; also recorded: increase the muscle strength	30-40%	less than that of the control group	No clear difference	well tolerated	2,4 times	very different in favor of those who received memantine	statistically significantly less	statistically significantly less	statistically significantly less
